Results from PubChem BioAssay (NCI).
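48-hour exposure; five concentrations; linearly interpolated endpoints. TGI: concentration producing complete growth inhibition.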

Columns and labels:
Assay in all cases: NCI anticancer screen, dose series, 48 h
NCI/ADR-RES ovarian = test system: NCI/ADR-RES ovarian
MDA-MB-435 = test system: MDA-MB-435
KM12 colon = test system: KM12 colon
SNB-75 CNS = test system: SNB-75 CNS
HOP-92 NSCLC = test system: HOP-92 NSCLC
HS 578T breast = test system: HS 578T breast
T-47D breast = test system: T-47D breast
MDA-MB-231 breast = test system: MDA-MB-231 breast
UO-31 renal = test system: UO-31 renal
A498 renal = test system: A498 renal
NCI-H522 lung = test system: NCI-H522 lung
MOLT-4 leukemia = test system: MOLT-4 leukemia
A549 NSCLC = test system: A549 NSCLC
PC-3 prostate = test system: PC-3 prostate
ACHN renal = test system: ACHN renal
OVCAR-8 ovarian = test system: OVCAR-8 ovarian
SK-MEL-5 melanoma = test system: SK-MEL-5 melanoma
786-0 renal = test system: 786-0 renal
HOP-62 NSCLC = test system: HOP-62 NSCLC
OVCAR-5 ovarian = test system: OVCAR-5 ovarian
SW-620 colon = test system: SW-620 colon
OVCAR-4 ovarian = test system: OVCAR-4 ovarian
UACC-257 melanoma = test system: UACC-257 melanoma
SK-MEL-2 melanoma = test system: SK-MEL-2 melanoma
MDA-N = test system: MDA-N
SF-539 CNS = test system: SF-539 CNS
HCT-116 colon = test system: HCT-116 colon
MCF7 breast = test system: MCF7 breast
EKVX NSCLC = test system: EKVX NSCLC
RPMI-8226 leukemia = test system: RPMI-8226 leukemia
DU-145 prostate = test system: DU-145 prostate
HCC-2998 colon = test system: HCC-2998 colon
SR leukemia = test system: SR leukemia
MALME-3M melanoma = test system: MALME-3M melanoma
BT-549 breast = test system: BT-549 breast
TK-10 renal = test system: TK-10 renal
SNB-19 CNS = test system: SNB-19 CNS
HT29 colon = test system: HT29 colon
CAKI-1 renal = test system: CAKI-1 renal
SK-OV-3 ovarian = test system: SK-OV-3 ovarian
SK-MEL-28 melanoma = test system: SK-MEL-28 melanoma
HL-60(TB) leukemia = test system: HL-60(TB) leukemia
CCRF-CEM leukemia = test system: CCRF-CEM leukemia
NCI-H23 lung = test system: NCI-H23 lung
NCI-H226 lung = test system: NCI-H226 lung
LOX IMVI melanoma = test system: LOX IMVI melanoma
SF-268 CNS = test system: SF-268 CNS
M14 melanoma = test system: M14 melanoma
IGROV1 ovarian = test system: IGROV1 ovarian
K-562 leukemia = test system: K-562 leukemia
OVCAR-3 ovarian = test system: OVCAR-3 ovarian
COLO 205 colon = test system: COLO 205 colon
RXF 393 renal = test system: RXF 393 renal
UACC-62 melanoma = test system: UACC-62 melanoma
HCT-15 colon = test system: HCT-15 colon
U251 CNS = test system: U251 CNS
SN12C renal = test system: SN12C renal
NCI-H460 lung = test system: NCI-H460 lung
SF-295 CNS = test system: SF-295 CNS

Measured: TGI

Cc1cc(N)ccc1C=O
not listed: SF-295 CNS
> 100 µM: all other assays above

O/N=C1\CCc2cc3c(cc21)CCC3
> 100 µM: all assays above
